From paper PMC3087488 (Journal of Oncology, 2011)

Tests used:
[1] = system: VEGFR1; design: method as in PMID 16951187; conditions: cited from earlier work
[2] = system: advanced solid tumors; assay: tumor response per modified RECIST; conditions: for Confirmed complete response / Confirmed objective response, % (95% CI) / Confirmed partial response / Durable stable disease (≥24 weeks) / Progressive disease / Stable disease / Unevaluable / Clinical benefit rate (CR + PR + durable SD): gemcitabine/cisplatin
[3] = phase 1b dose escalation: dose-limiting toxicities and MTD; conditions: in combination with panitumumab and gemcitabine/cisplatin; patients with advanced solid tumors
[4] = motesanib plasma pharmacokinetics in patients; format: in vivo, human
Description: Plasma motesanib and gemcitabine concentrations were analyzed using a validated liquid chromatography/tandem mass spectrometry (LC-MS/MS) method, respectively. […] All pharmacokinetic parameter estimates were calculated using standard noncompartmental methods and WinNonlin Professional software on […] (Version 5.1.1, Pharsight Corporation, Mountain View, Calif, USA).

[5] = system: VEGFR3; design: method as in PMID 16951187; conditions: cited from earlier work
[6] = system: cytochrome P 450 3A; conditions: cited from earlier work
[7] = system: human umbilical vein endothelial cell (HUVEC) proliferation; design: method as in PMID 16951187; conditions: cited from earlier work
[8] = motesanib 50 mg QD (n = 8) + panitumumab
[9] = motesanib 75 mg BID (n = 2) + panitumumab
[10] = motesanib 75 mg QD (n = 6) + panitumumab
[11] = motesanib 100 mg QD (n = 6) + panitumumab
[12] = motesanib 125 mg QD (n = 11) + panitumumab

With CC1(C)CNc2cc(NC(=O)c3cccnc3NCc3ccncc3)ccc21 [motesanib] as the compound, how does the IC50 [1] read?
Its IC50 is […].

And the “patients with durable (≥24 weeks) stable disease” value ([2]; all 41 patients)?
Its value is “six”.

What about the “patients with confirmed partial response” value ([2]; all 41 patients incl. 0-mg cohort) of the same compound?
The value was 9 patients.

What about the confirmed objective response ([2]; all 41 patients incl. 0-mg cohort, 10 patients, 95% CI, 12.4–40.3) of the same compound?
The confirmed objective response was 24%.

What about the “patients with best response of stable disease” value ([2]; all 41 patients, twenty patients) of the same compound?
Its value is 49%.

And the median progression-free survival ([2]; all patients)?
The median progression-free survival was 197 days.

And the “Kaplan-Meier estimate of median progression-free survival” value ([2]; all patients, 95% CI: 2.8—not estimable)?
Its value is 28 weeks.

What about the “patients with complete response as best objective response” value ([2]; all patients, breast cancer) of the same compound?
Its value is “One”.

What about the Confirmed complete response [2, 8] of the same compound?
Its Confirmed complete response is 0 (0) n (%).

And the “Confirmed objective response, % (95% CI)” value [2, 8]?
The value was 0 (0–36.9) %.

And the Confirmed partial response [2, 8]?
The Confirmed partial response was 0 (0) n (%).

And the “Durable stable disease (≥24 weeks)” value [2, 8]?
Its value is 0 (0) n (%).

What about the Progressive disease [2, 8] of the same compound?
Its Progressive disease is 2 (25) n (%).

And the Stable disease [2, 8]?
Its Stable disease is 5 (63) n (%).

And the Unevaluable [2, 8]?
The Unevaluable was 0 (0) n (%).

And the “Clinical benefit rate (CR + PR + durable SD)” value [2, 9]?
The value was 2 (100) n (%).

And the Confirmed complete response [2, 9]?
Its Confirmed complete response is 0 (0) n (%).

And the “Confirmed objective response, % (95% CI)” value [2, 9]?
The value was 50 (1.3–98.7) %.

And the Confirmed partial response [2, 9]?
The Confirmed partial response was 1 (50) n (%).

And the “Durable stable disease (≥24 weeks)” value [2, 9]?
Its value is 0 (0) n (%).

And the Progressive disease [2, 9]?
Its Progressive disease is 0 (0) n (%).

And the Stable disease [2, 9]?
Its Stable disease is 1 (50) n (%).

And the Unevaluable [2, 9]?
The Unevaluable was 0 (0) n (%).

What about the Confirmed complete response [2, 10] of the same compound?
The Confirmed complete response was 0 (0) n (%).

And the “Confirmed objective response, % (95% CI)” value [2, 10]?
The value was 17 (0.4–64.1) %.

And the Confirmed partial response [2, 10]?
The Confirmed partial response was 1 (17) n (%).

And the “Durable stable disease (≥24 weeks)” value [2, 10]?
The value was 3 (50) n (%).

What about the Progressive disease [2, 10] of the same compound?
The Progressive disease was 0 (0) n (%).

And the Stable disease [2, 10]?
Its Stable disease is 4 (67) n (%).

What about the Unevaluable [2, 10] of the same compound?
Its Unevaluable is 1 (17) n (%).

What about the “Clinical benefit rate (CR + PR + durable SD)” value [2, 11] of the same compound?
Its value is 6 (100) n (%).

And the Confirmed partial response [2, 11]?
The Confirmed partial response was 3 (50) n (%).

And the “Durable stable disease (≥24 weeks)” value [2, 11]?
The value was 1 (17) n (%).

What about the Progressive disease [2, 11] of the same compound?
The Progressive disease was 0 (0) n (%).

What about the Stable disease [2, 11] of the same compound?
Its Stable disease is 2 (33) n (%).

And the Unevaluable [2, 11]?
Its Unevaluable is 0 (0) n (%).

What about the “Clinical benefit rate (CR + PR + durable SD)” value [2, 12] of the same compound?
Its value is 6 (55) n (%).

And the Confirmed complete response [2, 12]?
Its Confirmed complete response is 0 (0) n (%).

And the “Confirmed objective response, % (95% CI)” value [2, 12]?
The value was 18 (2.3–51.8) %.

And the Confirmed partial response [2, 12]?
The Confirmed partial response was 2 (18) n (%).

And the “Durable stable disease (≥24 weeks)” value [2, 12]?
The value was 1 (9) n (%).

And the Progressive disease [2, 12]?
Its Progressive disease is 1 (9) n (%).

What about the Stable disease [2, 12] of the same compound?
Its Stable disease is 4 (36) n (%).

And the Unevaluable [2, 12]?
Its Unevaluable is 1 (9) n (%).

And the “patients with complete response, partial response, or stable disease as best response” value ([2]; of the 41 patients enrolled)?
Its value is 30 patients.

What about the “maximum tolerated dose (MTD) of motesanib” value [3] of the same compound?
Its value is 100 mg QD.

And the concentration at 24 h ([4]; human, in vivo, mean daily motesanib C 24 (above IC50 for HUVEC proliferation))?
The concentration at 24 h was over 4 ng/mL.

What about the concentration at 24 h ([4]; human, in vivo, mean daily motesanib C 24 (higher than IC90 for HUVEC proliferation)) of the same compound?
Its concentration at 24 h is over 28 ng/mL.

What about the half-life ([4]; human, in vivo, mean estimated terminal elimination half-life (t 1/2,z)) of the same compound?
The half-life was 5.21 to 6.72 h.

And the Tmax ([4]; human, in vivo, po)?
Its Tmax is about 1 h.

What about the “C max, mean (SD)” value ([4]; motesanib 75 mg QD (n = 3 − 6), single dose, + panitumumab, gemcitabine/cisplatin) of the same compound?
Its value is 186 (92) ng/mL.

And the route of metabolism [6]?
The route of metabolism was “primarily metabolized by glucuronidation and cytochrome P 450 3A-mediated oxidation”.

What about the “90% inhibitory concentration (IC90) for HUVEC proliferation” value [7] of the same compound?
Its value is 0.028 µg/mL.

And the “IC50 for HUVEC proliferation” value [7]?
Its value is 0.004 µg/mL.
